Some test systems named below: MOLT-4 leukemia; MALME-3M melanoma; HCT-15 colon; SK-MEL-28 melanoma; HCT-116 colon; CAKI-1 renal; ACHN renal; NCI/ADR-RES ovarian; HT29 colon; RPMI-8226 leukemia.
What all share (test): DTP human tumour cell line panel, 48 h

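Interpolation was linear, between the two tested concentrations surrounding the appropriate level; five concentrations were tested over 48 hours in 96-well plates. The concentration for 50% growth inhibition is given as GI50. TGI: concentration producing complete growth inhibition.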

A word on the GI50: it is the concentration giving 50% growth inhibition. A word on the TGI: it is the concentration at which net growth stops. A higher TGI goes with less potent growth arrest.

For the compound `O=C1Nc2ccc(F)cc2/C1=C/c1ccc[nH]1`, the GI50 in the assay with MOLT-4 leukemia is more than 25 µM; in the assay on MALME-3M melanoma, more than 25 µM; with HCT-15 colon it was 11.5 µM; with SK-MEL-28 melanoma it was more than 25 µM; in the assay with HCT-116 colon, more than 23.7 µM; with CAKI-1 renal, 8.03 µM. In addition, the GI50 with ACHN renal was 18.5 µM; in the assay on NCI/ADR-RES ovarian, more than 25 µM; in the assay with HT29 colon, more than 25 µM; in the assay with RPMI-8226 leukemia it was more than 25 µM. Also, the TGI with MOLT-4 leukemia, with MALME-3M melanoma, in the assay with HCT-15 colon, in the assay on SK-MEL-28 melanoma, with HCT-116 colon and in the assay on CAKI-1 renal was more than 25 µM each time. Further, the TGI in the assay with ACHN renal, in the assay on NCI/ADR-RES ovarian, in the assay with HT29 colon and in the assay on RPMI-8226 leukemia was more than 25 µM throughout.

On to `CC(=O)N[C@H]1CSSC[C@@H](C(N)=O)NC(=O)[C@H](C(C)C)NC(=O)[C@H](C)NC(=O)[C@H](Cc2cnc[nH]2)NC1=O`, for which the GI50 with MOLT-4 leukemia, in the assay on MALME-3M melanoma, with HCT-15 colon, in the assay on SK-MEL-28 melanoma, with CAKI-1 renal and with ACHN renal was more than 100 µM each time. Further, the GI50 with NCI/ADR-RES ovarian, in the assay with HT29 colon and in the assay on RPMI-8226 leukemia was more than 100 µM in each case. The TGI with MOLT-4 leukemia, in the assay on MALME-3M melanoma, in the assay with HCT-15 colon, with SK-MEL-28 melanoma, in the assay with CAKI-1 renal and with ACHN renal was more than 100 µM throughout. The TGI in the assay with NCI/ADR-RES ovarian, with HT29 colon and with RPMI-8226 leukemia was more than 100 µM each time.

For the compound `Cc1ccc2[nH]c(O)c(N=Nc3ccc(S(N)(=O)=O)cc3)c2c1`, the GI50 is more than 21.5 µM in the assay with MOLT-4 leukemia; more than 22.4 µM in the assay on MALME-3M melanoma; 11.1 µM in the assay with HCT-15 colon; 24.4 µM in the assay on SK-MEL-28 melanoma; 8.87 µM in the assay with HCT-116 colon; 17.8 µM with CAKI-1 renal. Also, the GI50 in the assay on ACHN renal is 9.74 µM; in the assay on NCI/ADR-RES ovarian it was 18.2 µM; in the assay with HT29 colon, 12.1 µM; in the assay with RPMI-8226 leukemia it was more than 25 µM. The TGI in the assay with MOLT-4 leukemia, with MALME-3M melanoma, in the assay with HCT-15 colon, with SK-MEL-28 melanoma, in the assay on HCT-116 colon and in the assay with CAKI-1 renal was more than 25 µM in each case. Besides, the TGI with ACHN renal, in the assay on NCI/ADR-RES ovarian, with HT29 colon and with RPMI-8226 leukemia was more than 25 µM in each case.

For the compound `COc1cccc(C#Cc2ccccc2C#CCCCCO)c1`, the GI50 with MOLT-4 leukemia is 3.82 µM; in the assay on MALME-3M melanoma, 13.9 µM; in the assay on HCT-15 colon it was 3.62 µM; in the assay on SK-MEL-28 melanoma it was 15.3 µM; in the assay on HCT-116 colon it was 12.2 µM; in the assay with CAKI-1 renal it was 6.49 µM. Besides, the GI50 with ACHN renal was 11.8 µM; in the assay with NCI/ADR-RES ovarian, 5.44 µM; in the assay with HT29 colon it was 12.1 µM; in the assay with RPMI-8226 leukemia it was 3.77 µM. Also, the TGI came to 53.1 µM in the assay on MOLT-4 leukemia; 37.9 µM with MALME-3M melanoma; 17.7 µM in the assay on HCT-15 colon; 30.3 µM with SK-MEL-28 melanoma; 26.4 µM in the assay with HCT-116 colon; 19.9 µM in the assay with CAKI-1 renal. Further, the TGI was 25.8 µM with ACHN renal, 20 µM in the assay with NCI/ADR-RES ovarian, 27.9 µM with HT29 colon and 26.4 µM in the assay on RPMI-8226 leukemia.

`C[C@H](O)C(=O)N1CCC(CCn2c(Sc3cc4c(cc3Br)OCO4)nc3c(N)ncnc32)CC1`: the GI50 was 0.55 µM in the assay on MOLT-4 leukemia; 0.807 µM in the assay on MALME-3M melanoma; 1.3 µM in the assay on HCT-15 colon; 1.49 µM in the assay with SK-MEL-28 melanoma; 0.461 µM in the assay with HCT-116 colon; 2.26 µM in the assay with CAKI-1 renal. Further, the GI50 in the assay on ACHN renal was 0.84 µM; in the assay on NCI/ADR-RES ovarian it was 13.9 µM; with HT29 colon, 0.432 µM; in the assay on RPMI-8226 leukemia it was 4.19 µM. The TGI with MOLT-4 leukemia is 11.8 µM; in the assay on MALME-3M melanoma, more than 100 µM; in the assay with HCT-15 colon, more than 100 µM; in the assay on SK-MEL-28 melanoma it was more than 100 µM; in the assay with HCT-116 colon it was more than 100 µM; with CAKI-1 renal it was more than 100 µM. In addition, the TGI in the assay on ACHN renal, in the assay on NCI/ADR-RES ovarian, in the assay on HT29 colon and in the assay on RPMI-8226 leukemia was more than 100 µM each time.

As to `C/C(N=NC(=S)N(C)C)=C1\C=CC=CN1O`, the TGI in the assay with MOLT-4 leukemia is more than 56.4 µM; with MALME-3M melanoma, more than 67.2 µM; with HCT-15 colon, more than 84.1 µM; in the assay with SK-MEL-28 melanoma it was more than 100 µM; in the assay with HCT-116 colon it was more than 100 µM; in the assay on CAKI-1 renal, more than 100 µM. The TGI is more than 100 µM with ACHN renal, 21.1 µM in the assay on NCI/ADR-RES ovarian, more than 100 µM in the assay on HT29 colon and more than 70.4 µM with RPMI-8226 leukemia.

As for `Nc1ccn(C2CCC(CO)O2)c(=O)n1` (stereo not given), the GI50 in the assay with MOLT-4 leukemia was 87.5 µM; in the assay on MALME-3M melanoma, more than 1000 µM; in the assay on HCT-15 colon it was more than 1000 µM; in the assay on HCT-116 colon, more than 1000 µM; in the assay on CAKI-1 renal, more than 1000 µM; in the assay on HT29 colon, more than 1000 µM. The GI50 with RPMI-8226 leukemia was more than 1000 µM. The TGI with MOLT-4 leukemia, in the assay on MALME-3M melanoma, in the assay with HCT-15 colon, with HCT-116 colon, with CAKI-1 renal and in the assay on ACHN renal was more than 1000 µM in each case. For the same compound, the TGI in the assay with NCI/ADR-RES ovarian, in the assay on HT29 colon and in the assay with RPMI-8226 leukemia was more than 1000 µM each time.

For the compound `O=C1CSC(c2ccc(Cl)cc2Cl)N1c1ccc(F)cc1` (stereo not given), the GI50 with MOLT-4 leukemia was 18.5 µM; with MALME-3M melanoma, 20.4 µM; in the assay with HCT-15 colon, 17.2 µM; in the assay on HCT-116 colon, 16.7 µM; in the assay with CAKI-1 renal, 24.9 µM; in the assay on ACHN renal, 17.2 µM. For the same compound, the GI50 in the assay with NCI/ADR-RES ovarian is 18.8 µM; in the assay on RPMI-8226 leukemia, 19.5 µM. The TGI worked out at 43.4 µM with MOLT-4 leukemia; 35.5 µM in the assay with MALME-3M melanoma; 31 µM with HCT-15 colon; 30.3 µM with HCT-116 colon; 42.7 µM in the assay with CAKI-1 renal; 31.1 µM with ACHN renal. For the same compound, the total growth inhibition concentration (TGI) in the assay with NCI/ADR-RES ovarian was 35.5 µM; in the assay on RPMI-8226 leukemia, 42.7 µM.

These data come from PubChem BioAssay (NCI).
